Test results reported in US11234967B2, “Use of 3-[5-amino-4-(3-cyanobenzoyl)-pyrazol-1-yl]-n-cyclopropyl-4-methylbenzamide in the prevention or reduction of acute exacerbations of chronic obstructive pulmonary disease” (MEREO BIOPHARMA 1 LIMITED, priority 2017, dated 2022).

Tests used:
[1] = system: lymphocytes and neutrophils; assay: AETHER Phase 2 trial: % lymphocytes and neutrophils in blood; assay type: in vivo, human
Description: (§1) A Phase 2 trial (referred to as AETHER) was a double-blind, randomised, placebo-controlled clinical study investigating the use of BCT-197, on top of Standard of Care, for the treatment of patients with AECOPD. Standard of Care included the addition of steroids and/or antibiotics to a patient's chronic COPD medication and symptomatic bronchodilators. Following baseline assessment, 282 eligible patients were randomised to receive either one of two different dose regimens of BCT-197 or placebo (three doses over five days).
Systemic markers of adaptive and innate immunity are predictive of disease progression in COPD. […] Consequently, the effect of BCT197 to rebalance these biomarkers to a healthier phenotype, including beyond the period of systemic drug exposure, supports the potential benefit of the dosing regimens of the present invention.

[2] = system: patients with AECOPD; assay: AETHER Phase 2 trial: change in FEV1 from baseline to Day 7; assay type: in vivo, human; conditions: for FEV1 change from baseline to Day 7, sub-group with blood eosinophils <2%: on top of standard of care, compared to other sub-groups and placebo, FIGS. 10, 11
Description: as §1, with “either” for “either one of”, “days). The primary endpoint was a comparison of change in forced expiratory volume in 1 second (FEV1) from baseline to day 7 within each arm of the study.” for “days).”
The trial assessed adult patients≥40 years with an acute exacerbation of COPD (as defined by increase in symptoms of cough, and/or sputum and/or breathlessness that required addition of antibiotics and or systemic corticosteroids to their regular treatment).
Patients received one of two oral dosing regimens of 3-[5-amino-4-(3-cyanobenzoyl)-pyrazol-1-yl]-N-cyclopropyl-4-methylbenzamide or matching oral placebo administered according to the dosing schedules shown in Table 2.
Inclusion criteria for the study population were: • Males/females≥40 • On regular treatment for COPD (categories C and D by 2015 GOLD guidelines) • Presence of an active exacerbation of the ongoing COPD requiring hospitalisation for treatment: • At least one moderate or severe COPD exacerbation in the preceding 12 months • Smoking history of at least 10 pack years • FEV1<65% of the predicted normal value […]
Efficacy of treatment was measured by the primary endpoint of change in FEV1 from baseline (before treatment) to Day 7. Patients with COPD and low eosinophils (determined by blood percentages or absolute counts) are considered to be poorly responsive to treatment of acute exacerbations using known treatments.

[3] = system: acute exacerbations of COPD; assay: AETHER Phase 2 trial: occurrence of new acute exacerbations of COPD / re-hospitalisation out to 6 months; assay type: in vivo, human
Description: A Phase 2 trial (referred to as […]) was a double-blind, randomised, placebo-controlled clinical study investigating the use of BCT-197, on top of Standard of Care, for the treatment of patients with AECOPD. Standard of Care included the addition of steroids and/or antibiotics to a patient's chronic COPD medication and symptomatic bronchodilators. Following baseline assessment, 282 eligible patients were randomised to receive either one of two different dose regimens of BCT-197 or placebo (three doses over five days). The trial assessed adult patients ≥40 years with an acute exacerbation of COPD (as defined by increase in symptoms of cough, and/or sputum and/or breathlessness that required addition of antibiotics and or systemic corticosteroids to their regular treatment). The dosing regimen of 3-[5-amino-4-(3-cyanobenzoyl)-pyrazol-1-yl]-N-cyclopropyl-4-methylbenzamide or matching oral placebo administered are shown in Table 1. [table] BCT197 or placebo was added on top of the standard of care for the exacerbation. Exploratory long term outcomes after the acute treatment were included out to 6 months. […] Inclusion criteria for the study population were: • Males/females≥40 • On regular treatment for COPD (categories C and D by 2015 GOLD guidelines) • Presence of an active exacerbation of the ongoing COPD requiring hospitalisation for treatment: • At least one moderate or severe COPD exacerbation in the preceding 12 months • Smoking history of at least 10 pack years • FEV1<65% of the predicted normal value Exclusion criteria for the study population were: • Current diagnosis of asthma • Treatment with systemic corticosteroids or antibiotics in the prior 4 weeks. • Requiring intensive care unit treatment • Clinically significant cardiovascular condition of clinically significant ECG abnormality • Concurrent pneumonia, pulmonary embolus or pneumothorax

[4] = system: fibrinogen; assay: AETHER Phase 2 trial: fibrinogen blood concentration; assay type: in vivo, human; conditions: high and low dose over 5 days; to Day 14; including <2% eosinophils; maximal at Day 7; FIG. 13
Description: as §1, with “either” for “either one of”, “days). The primary endpoint was a comparison of change in forced expiratory volume in 1 second (FEV1) from baseline to day 7 within each arm of the study.” for “days).”
(§2) A further exploratory outcome included over the treatment period to Day 5 and BCT197 systemic exposure (to Day 14) were the inflammatory biomarkers high sensitivity C-Reactive Protein (hsCRP) and fibrinogen measured in patient blood. […] This was maximal at Day 7 (FIGS. 12 and 13) coincident with the highest improvement in FEV1 (FIG. 11) in response to BCT197 in the same patient population with <2% eosinophils.

[5] = system: high sensitivity C-Reactive Protein (hsCRP); assay: AETHER Phase 2 trial: hsCRP blood concentration; assay type: in vivo, human
Description: as §1
Inflammatory biomarkers are related to disease outcomes (Barnes and Celli, Eur Respir J, 2009, 33, pp 1165-1185; Bourdin et al., Eur Respir Rev, 2009, 18, pp 198-212) and are central to the proposed mechanism of action for BCT197. A further exploratory outcome was included out to 6 months, namely the inflammatory biomarker high sensitivity C-Reactive Protein (hsCRP) measured in patients. […] This is supportive that treatment in accordance with the invention leads to a reduction in re-hospitalisations and non-hospitalised exacerbations over this period through long term reduction in inflammation.
After the acute treatment period, the hsCRP remains lower in those who had received BCT197 compared to placebo to Day 180 (p value<0.05) without additional dosing of BCT197, supporting a prolonged pharmacology effect on inflammation by BCT197.
as §2

[6] = system: AECOPD; conditions: single oral dose; cited from earlier work

Cc1ccc(C(=O)NC2CC2)cc1-n1ncc(C(=O)c2cccc(C#N)c2)c1N [BCT197, 3-[5-amino-4-(3-cyanobenzoyl)-pyrazol-1-yl]-N-cyclopropyl-4-methylbenzamide]
change from baseline in % neutrophils during acute treatment ([1]; high and low dose vs placebo, greater than placebo with dose-dependent effect, FIG. 8): rapid decrease in % neutrophils | change from baseline in % lymphocytes over the acute treatment period ([1]; high and low dose vs placebo, to Day 14, FIG. 7): dose-dependent increase in lymphocytes | reduction in % neutrophils compared to placebo to Day 56 ([1]; without additional dosing, FIG. 9): remains greater | FEV1: relative difference to standard of care, >2% eosinophil sub-population ([2]; FIG. 10 right hand side): much less than in the low eosinophil group | FEV1 change from baseline to Day 7, sub-group with blood eosinophils <2% [2]: substantial and consistent improvement in FEV1 | FEV1 change from baseline to Day 7, sub-group with blood eosinophils <2% ([2]; listed as compound A): significant improvement | re-hospitalisation for COPD ([3]; both high and low dose over 5 days, subsequent 6 months, high eosinophil sub group (Eos>2%), vs placebo, FIG. 3): able to reduce re-hospitalisation for COPD | reduction of occurrence of new exacerbations that require hospitalisation ([3]; high dose (75/40/40 mg, days 1, 3, 5) on top of standard of care, subsequent 6 months, vs placebo, FIG. 1): 40-60% | period of greatest effect on new exacerbations that require hospitalisation ([3]; high dose, based on numerical difference to placebo and statistical significance): between 3 and 4 months | recurrent exacerbations that were not hospitalised ([3]; short course of high dose, FIG. 2): reductions | fibrinogen from baseline versus placebo [4]: dose-dependent reduction | hsCRP for the subsequent 6 months versus placebo ([5]; both high and low dose over 5 days, both high and low eosinophil sub group, FIGS. 4 and 5): sustained and durable reduction in hsCRP | hsCRP from baseline versus placebo ([5]; high and low dose over 5 days, to Day 14, including <2% eosinophils, maximal at Day 7, FIG. 12): dose-dependent reduction | decrease in hsCRP to day 7 during acute treatment compared to placebo ([5]; high dose, combined Eos>2% and <2%, p<0.05 at Day 3, 7 and 10, FIG. 6): significantly greater | hsCRP after the acute treatment period compared to placebo ([5]; high dose, to Day 180 without additional dosing, p value<0.05, FIG. 6): remains lower | recovery of AECOPD to the stable disease state [6]: accelerates the recovery to the stable disease state
